{"source": "patent EP4361137A1", "about": "“PRUNE1 INHIBITORS AND THERAPEUTIC USE THEREOF” (CEINGE Biotecnologie Avanzate Franco Salvatore s.c. a r.l., priority 2022, dated 2024)", "key": {"c-Prune1 (354-453)": {"molecular_target": "T1, c-Prune1 (354-453) (Homo sapiens, UniProt Q86TP1)", "T1 construct": "20 µM of c-Prune1 (354-453) protein was labelled with 60 µM of NT-647-NHS reactive dye; made in house", "T1 sequence (Q86TP1 354-453)": "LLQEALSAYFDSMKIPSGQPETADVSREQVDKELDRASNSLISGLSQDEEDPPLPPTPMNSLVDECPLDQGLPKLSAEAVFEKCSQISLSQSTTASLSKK", "assay": "NMR and microscale thermophoresis interaction study", "format": "binding", "conditions": "KD not given", "experimental": "For interaction studies, samples (total volume, 600 µL) were prepared in 5-mm NMR tubes, using 1mM of AA7.5 and 10µM of C-prune1 (AA7.5/C-prune1 molar ratio of 100:1) in H2O/^2H2O mixture at pH 6.8. STD spectra were acquired with 512 scans with onresonance irradiation at -0.5 ppm for selective saturation of protein resonances and off-resonance irradiation at 30 ppm for reference spectra. A train of 40 Gaussian-shaped pulses of 50 milliseconds with 1-millisecond delay between pulses were used, for a total saturation time of 2 seconds. […]\n1H and STD spectra of AA7.5 alone were acquired as reference. […] Relative STD values were calculated by dividing STD signal intensities by the intensities of the corresponding signals in a 1D 1H NMR reference spectrum of the same sample recorded with 512 scans and similarly processed. […] To determine the per residue chemical shift perturbation upon binding and account for differences in spectral widths between ^15N and ^1H resonances, weighted average chemical shift differences, ΔδHN , were calculated for the amide ^15N and ^1H resonances, using equation: ΔδHN = ([((ΔHN))^2+((0.17×Δ^15N))^2])^((1)/(2)) [formula] where ΔH and ΔN are the differences between free and bound chemical shifts. […]"}, "CCL2": {"test_system": "CCL2", "assay": "ELISA of CCL2 in sera of implanted mice", "format": "in vivo, FVB WT mice", "conditions": "6 mg/kg/day intraperitoneally for seven days; n.5 per group", "experimental": "ELISA assay ([…]) was performed by following the manufacturer instruction, to measure the levels of CCL2 cytokine in the sera from immunocompetent syngeneic mice orthotopically implanted with MATH1-Prune1/ TP53-/- cells and treated intraperitoneally for seven days with LEO-AA7.5(S)T (n.5) at 6 mg/kg/day, or with water (n.5) as the vehicle control group."}, "[1]": {"test_system": "inflammatory cytokines targeted by IMIDs drugs", "assay": "qPCR of inflammatory cytokines in MATH1-Prune1/TP53-/- cells", "format": "cell-based, murine", "conditions": "10 µM, 24 hours", "experimental": "RNA samples were extracted using TRIzol RNA Isolation Reagent (15596026, Invitrogen), according to the manufacturer instructions. Reverse transcription was performed with 5× All-In-One RT MasterMix (g592; ABM), according to the manufacturer instructions. The reverse transcription products (cDNA) were amplified by qRT-PCR using an RT-PCR system (7900; Applied Biosystems, Foster City, CA, USA). The cDNA preparation was through the cycling method, by incubating the complete reaction mix as follows: cDNA reactions: (37 °C for 10 min and 60 °C for 15 min); Heat-inactivation: 95 °C for 3 min; Hold stage: 4 °C. The targets were detected with the SYBR green approach, using BrightGreen BlasTaq 2× PCR MasterMix (G895; ABM). Human ACTB was used as the housekeeping gene to normalize the quantification cycle (Cq) values of the other genes. These runs were performed on a PCR machine (Quantstudio5, Lifetechnologies) with the following thermal protocol: Hold stage: 50 °C for 2 min; Denaturation Step: 95 °C for 10 min; Denaturation and annealing (×45 cycles): 95 °C for 15 s and 60 °C for 60 s; Melt curve stage: 95 °C for 15 s, 60 °C for 1 min, and 95 °C for 15 s. Relative expression of the target genes was determined using the 2^-ΔΔCq method, as the fold increase compared with the controls. The data are presented as means ±SD of the 2^-ΔΔCq values (normalized to human ACTB) of three replicates."}}, "data": [{"smiles": "COc1ccc(CNc2ncnc(N3CCC[C@H](CO)C3)n2)cc1.Cl", "note": "[LEO-AA7.5(S)T, (S)-(1-(4-((4-methoxybenzyl)amino)-1,3,5-triazin-2-yl)piperidin-3-yl)methanol HCl salt]", "values": [{"measurement": "binding to Prune1 protein at its Carboxyl-terminus domain", "setting": "c-Prune1 (354-453)", "value": "binds Prune1 protein"}, {"measurement": "sera circulating CCL2", "setting": "CCL2", "value": "decreased levels"}, {"measurement": "levels of inflammatory cytokines targeted by IMIDs drugs (qPCR)", "setting": "[1]", "value": "decreased levels"}]}]}
